What was measured:
[1] = complete feed formulation of multivitamins, choline chloride and trace mineral premix; room temperature; 4 months; cited from earlier work
ducks = experiment: Duck rearing/fattening trial, Example 16; type: in vivo; conditions: up until the 10th week, KQ 580 mg or K3 4 gm per 1000 L water
Procedure: An experiment was conducted with ducks. In the duck's rearing/fattening a similar experience was found as with chickens and turkeys with respect to observations of weight, welfare and behaviour. Duration of trial: 16 weeks • Age: Supplemented from day 7 onwards • Amount: 7,500 birds • Experimental Group: 3,500 birds • Control Group: 4,000 birds • Dosage: Treatment 580 mg KQ per 1000 L water (Example 2). Control 4 gm vitamin K3 per 1000 L water • Dosage given for 24 hours 3× per week.

layer hens = experiment: Caged layer fatigue, X-ray bone density in layer hens, Example 12; type: in vivo
laying birds = experiment: Old laying birds feeding experiment, Example 14; type: in vivo
Procedure: An experiment was conducted with old laying birds aged 21 weeks. 20,000 birds were given 580 mg formulated vitamin KQ/tonne of food (Example 2), instead of the control diet of 4 gm/tonne Vitamin K3.

prothrombin synthesis = conditions: in animals; cited from earlier work
[2] = system: calcium transfer from luman-blood; conditions: chickens, 2.5 umole of menadione/kg (430 ugK3/Kg bwt.); cited from earlier work
animals = conditions: cited from earlier work
chickens = experiment: Chickens hatched from breeder layer eggs, bone density and bone ash, Example 15; type: in vivo
Procedure: An experiment was conducted with laying birds and broilers: • A) Chickens hatched from the breeder layer eggs (fed 580 mg/tonne of formulated vitamin KQ) contained 50-100 ug Vitamin K1 per egg from day 1 (Example 2); • B) Chickens hatched from the breeder layer eggs were fed 4 gm/tonne vitamin K3 from day 1 contained 4-10 ug vitamin K1 per egg from day 1.
1000 chickens from each group were slaughtered at day 35 and X-rayed.

turkeys = experiment: Turkey feeding experiment, Example 8; type: in vivo
Procedure: An experiment was conducted in turkeys. In this experiment all diets used in this study were identical in nutrients, the only difference being that the control diets contained 4 gm/tonne K3 and the experimental diet contained the formulated vitamin KQ at 580 mg/tonne or per 1000 L.
Three groups of 5000 turkeys (15000 turkeys per farm) were used. In the control groups 1 and 3 were fed Vitamin K3 (4 gm/tonne of food). Experimental group 2 was fed Vitamin KQ (580 mg formulated K1/K2/Example 2/tonne of food). 200 turkeys from each group were then weighed at 10 weeks.

chickens (broilers) = experiment: Broiler chicken feeding experiment, Example 11; type: in vivo
Procedure: An experiment was conducted with chickens (broilers). 41,000 chickens were in a control group and were fed 4 gm/tonne vitamin K3. 41,000 thickens were in an experimental group and fed on experimental diet of 580 mg of Vitamin KQ (Example 2) formulated per tonne of food. Results were determined after the chickens were 30 days old.

[3] = from vegetable sources, humans; cited from earlier work
[4] = system: carboxylation of endogenous precursors; conditions: cited from earlier work

## CC1(S(=O)(=O)O)CC(=O)c2ccccc2C1=O.Cc1cc(C)[nH]c(=O)n1 (stereo not drawn) [MPB, menadione dimethyl-pyrimidol bisulphite]
[1]
  retained (stability): 57%

## CC1(S(=O)(=O)[O-])CC(=O)c2ccccc2C1=O.[Na+] (stereo not drawn) [MSB, menadione sodium bisulphite]
[1]
  retained (stability): 33%

## CC1=CC(=O)c2ccccc2C1=O [Vitamin K3, menadione]
ducks
  feather picking (observation): extensive feather picking
Layer hens; Day 27 to Day 35, 250 ug/bird/day
  Change % of RBAE bone density: −5.4%
Layer hens; layer hens
  effect on bone growth / strength (observation): deceased bone growth
  effect on caged layer fatigue (loss of bone density): failed to prevent the disease
Layer hens; layer hens, 250 ug/bird/day, Day 27
  bone density as RBAE (Radiographic bone aluminium equivalents), Day 27: 3.85 mm
Layer hens; layer hens, 250 ug/bird/day, Day 35
  bone density as RBAE (Radiographic bone aluminium equivalents), Day 35: 3.64 mm
Laying birds; 20,000 birds, KQ 580 mg/tonne, K3 4 gm/tonne of food
  eggs per day: 14,800 eggs per day
Laying birds; age of layers 2 weeks
  % eggs layed: 92%
Laying birds; age of layers 21 weeks
  % eggs layed: 92%
Laying birds; age of layers 60 weeks
  % eggs layed: 74%
Laying birds; age of layers 90 weeks
  % eggs layed: 54%
Prothrombin synthesis
  effect on prothrombin synthesis, times lower: approximately 100 times
[2]
  duration of inhibition of calcium transfer: 6 to 10 h
  time to inhibition of calcium transfer: ≤ 30 min
animals; animals
  dose at which toxic levels are reached: 0.5 mg/kg
animals; relative to vitamin K1
  more toxic than vitamin K1: at least 50 ×
chickens; chickens hatched from breeder layer eggs, slaughtered at day 35, K3 4 gm/tonne, KQ 580 mg/tonne of feed
  bone density as RBAE (Radiographic bone aluminium equivalents), Day 35: 3.64 mm
chickens; chickens slaughtered at day 35
  Bone Ash: 35%
chickens; day 35
  bone ash relative to that of Vitamin KQ: 83%
  bone density relative to that of Vitamin KQ: 60%
turkeys; turkeys
  E. coli / colibacillus infection (observation): colibacillus infection was evident
turkeys; turkeys at 10 weeks, K3 4 gm/tonne of food
  weight deviation: up to 1.2 kg
turkeys; turkeys at 10 weeks, KQ 580 mg/tonne, K3 4 gm/tonne of food
  average weight: 6.97 kg
Chickens (broilers); broilers
  Dropsy: 0.36%
  Marketable animals according an official poultry meat inspector: 95.25%
  Marketable feet A quality: 81.37%
  Skin infections: 3.65%
Chickens (broilers); of 41,000 birds slaughtered
  birds with broken bones at slaughter: 3200 birds

## CC1=C(C/C=C(\C)CCC[C@H](C)CCC[C@H](C)CCCC(C)C)C(=O)c2ccccc2C1=O [vitamin K1, phylloquinone]
[3]
  bioavailability: 4.7-15%
animals; animals
  dose consumed that does not result in any toxicity: 25 gm/kg
[4]
  relative activity versus menadione Vitamin K3: 4 times

— patent publication US20150359757A1, “A METHOD FOR IMPROVING THE WELLBEING OF AN ANIMAL USING A COMPOSITION INCLUDING VITAMIN K” (priority 2013, published 2015)
